Patent US20070112043A1, “Acylated and non-acylated imidazo[2,1-b]-1,3,4,-thiadiazole-2-sulfonamides, and uses thereof” (priority 2003, published 2007)
Values after ≈ are worked out from the molar mass of the structure shown. Values joined by “and” are separate entries in the source; they are usually repeats but may differ in a detail not shown here. Identical values can stand only once. “Also recorded” adds a separate entry of the source. Like-named read-outs stand apart in the source and are kept apart here.

Columns and labels:
[1] = tested on: 15N neuroblastoma cells; test: Alamar blue viability assay, 15N neuroblastoma; type: cell-based; conditions: cellular viability after 48 hours; compound dissolved in DMSO
Experimental: In order to investigate the anti-cancer potential of compounds represented by formula I-a, 15N neuroblastoma cells lines were treated with compound and assayed for cellular viability after 48 hours. The cellular viability of 15N neuroblastomas treated with compounds 1, 5, 6, 11, and 13 (dissolved in DMSO) are summarized in Table 5 (see Compound 152).
Compounds were tested for anti-cancer properties using the Alamar blue viability assay. Daoy human medulloblastoma cells of 15N neuroblastoma cells were plated at a density of 5000 cells per well of a 96 well plate and cultured in RPMI media supplemented with antibiotics and 5% fetal bovine serum. Cells in culture were incubated with compound for 48 hours after which time Alamar blue was added to the culture media. After 4 hours media was transferred to opaque white plates and fluorescence of transformed alamar blue was measured at excitation 535/emission 595).

[2] = Microsomal stability; type: in vitro ADME
[3] = tested on: SCG neurons; conditions: cited from earlier work
[4] = Stability of solutions/formulations; type: physicochemical; conditions: for Stability of HPCD formulation: 10 wt/vol % HPCD, room temperature; for Stability in 10 wt/vol HPCD: PBS/HPCD (25:75) solution
Description: (§1) This is illustrated for compound 15 in Table 7.

[5] = tested on: Male Sprague-Dawley rats; test: Rat model of cisplatin induced neuropathy (SNCV); type: in vivo; conditions: for efficacy in cisplatin model of peripheral neuropathy: dose not stated
Experimental: (§2) Male Sprague-Dawley rats were administered 2.5 mg/kg cisplatin daily, for five consecutive days to achieve a final cumulative dose of 12.5 mg/kg. On the third day following the final cisplatin injection, animals received compounds SC at concentrations of (3, 10, and 30 mg/kg). Dosing continued Monday through Friday for three consecutive weeks. The effect of cisplatin on peripheral nerve function, and the ability of the compounds to attenuate the cisplatin effect were determined after three weeks of drug treatment by measuring the sensory nerve conduction velocity (SNCV) in the caudal nerve of the tail. Stimulating electrodes were used to deliver 2 mA pulses once per second for 1.5 min. The resulting compound sensory nerve action potentials were averaged, and the mean response onset time was determined from the averaged response. Two mean response times were determined, the second being 20 mm distal from the first. The difference in onset time between the two recordings was determined and used to calculate the conductance velocity.
Male Sprague-Dawley rats (weighing 200-225 g on arrival) were intraperitoneally administered 2.5 mg/kg cisplatin daily, for five consecutive days to achieve a final cumulative dose of 12.5 mg/kg. On the third day following the final cisplatin injection, animals received compounds SC at concentrations of (3, 10, and 30 mg/kg). Dosing continued Monday through Friday for three consecutive weeks.
as §2, with “The” for “Male Sprague-Dawley rats were administered 2.5 mg/kg cisplatin daily, for five consecutive days to achieve a final cumulative dose of 12.5 mg/kg. On the third day following the final cisplatin injection, animals received compounds SC at concentrations of (3, 10, and 30 mg/kg). Dosing continued Monday through Friday for three consecutive weeks. The”, “velocity. [formula]” for “velocity.”
The results of these experiments were combined, and ANOVA was performed, followed by a Fisher LSD test.

[6] = Solubility in water and formulations; conditions: for Solubility 10 wt/vol % HPCD water: Na salts in aqueous 10 wt/vol % HPCD; for Solubility Water: Na salts in water; for Solubility in 10 wt/vol HPCD: PBS/HPCD (25:75) solution; for solubility in water or in 10% HPCD: TFA salts, not neutralized
Experimental: (§3) Alternatively, the sodium salt can be prepared in situ by dissolving the free acid in phosphate buffered saline (PBS) that has been buffered to a pH of 7.4. The solubility and stability of these solutions can be improved by the use of an aqueous soluble co-solvent such as, but not limited to HPCD. This solubility can be further improved by the addition of surfactants such as PEG 400. In general, the free acid is suspended in 10 wt/vol % HPDC (10 g dissolved in 100 mL water) and treated with 0.5M PBS (pH 7.4) such that the volumes are in a ratio of 75:25.

[7] = log P; type: physicochemical
[8] = pH of formulation; type: physicochemical; conditions: PBS/HPCD (25:75) solution
Description: as §1

[9] = Conversion to primary sulfonamide in rat primary hepatocytes; type: in vitro ADME; conditions: 90 minutes
Experimental: Compound 15 is converted to compound 1 in the presence of liver microsomes using the procedure described by Cresteil, T., et al. (Cresteil, T., et al. Am. Soc. Pharm. Exper. Therapeutics, 2002, 30, 438-445). Upwards of 50% conversion is observed after 60 minutes. When incubated with rat primary hepatocytes, the conversion of compounds 15, 37, and 44 to their respective primary sulfonamides, 1, 11, and 13, is observed.

[10] = physchem; conditions: water
Experimental: as §3

[11] = Taxol induced cell death, read-out: Taxol SCG IC50

Row | SMILES | Stability in 10 wt/vol HPCD [4] [weeks] | log P [7] | pH [8] | Solubility in 10 wt/vol HPCD [6] [µg/mL] | other results
1 | NS(=O)(=O)c1nn2c(Br)c(-c3ccccc3)nc2s1 [5-Br-6-Ph-ITS, 5-Bromo-6-phenylmidazo[2,1-b]-1,3,4,-thiadiazole-2-sulfonamide, reference compound] |  |  |  |  | IC50 [1]: 3 µM; degradation in microsomal fractions [2]: rapidly degraded; also recorded: rapidly consumer by microsomal fractions; Microsomal Stability (1 hr) [2]: 0%
2 | NS(=O)(=O)c1nn2cc(-c3ccc(N4CCOCC4)cc3)nc2s1 [Compound 5] |  |  |  |  | IC50 [1]: ~20 µM and 20 µM; Microsomal Stability (1 hr) [2]: 100%; IC50 [3, 11]: 7 µM; IC50 ([3]; anti-NGF induced cell death, read-out: anit-NGF SCG IC50): 22 µM
3 | [NH-]S(=O)(=O)c1nn2cc(-c3ccc(N4CCOCC4)cc3)nc2s1.[Na+] [Compound 6] |  |  |  |  | Stability of HPCD formulation [4]: >14 days; Cisplatin-induced loss in SNCV ([5]; 10-30 mg/kg, data not shown): protective; efficacy in cisplatin model of peripheral neuropathy [5]: efficacy; Solubility 10 wt/vol % HPCD water [6]: 15000 µg/mL; Solubility Water [6]: 2300 µg/mL
4 | NS(=O)(=O)c1nn2cc(-c3ccc4c(c3)OCCCO4)nc2s1 [Compound 7] |  |  |  |  | IC50 [3, 11]: 7 µM
5 | COc1cccc(-c2ccc(-c3cn4nc(S(N)(=O)=O)sc4n3)cc2)c1 [Compound 9] |  |  |  |  | IC50 [1]: 5 µM; Microsomal Stability (1 hr) [2]: 74%; IC50 [3, 11]: 3 µM
6 | [NH-]S(=O)(=O)c1nn2cc(-c3ccc(-c4cccc(C(F)(F)F)c4)cc3)nc2s1.[Na+] [Compound 12] |  |  |  |  | Stability of HPCD formulation [4]: >14 days; Cisplatin-induced loss in SNCV ([5]; 10-30 mg/kg, data not shown): protective; efficacy in cisplatin model of peripheral neuropathy [5]: efficacy; Solubility 10 wt/vol % HPCD water [6]: 4000 µg/mL; Solubility Water [6]: 1400 µg/mL
7 | [NH-]S(=O)(=O)c1nn2cc(-c3ccc(Oc4ccc(Cl)cc4)cc3)nc2s1.[Na+] [Compound 14] |  |  |  |  | Stability of HPCD formulation [4]: >14 days; Cisplatin-induced attenuation of SNCV ([5]; 10 mg/kg): prevented; Cisplatin-induced loss in SNCV ([5]; 10 and 30 mg/kg): prevented; efficacy in cisplatin model of peripheral neuropathy [5]: efficacy; Solubility 10 wt/vol % HPCD water [6]: 20000 µg/mL; Solubility Water [6]: 10000 µg/mL
8 | CCCC(=O)NS(=O)(=O)c1nn2cc(-c3ccccc3)nc2s1 [Compound 16] | >4 | 3.67 | 7.4 | 4000 (≈ 11.4 mM) | 
9 | CC(C)(C)OC(=O)NCC(=O)NS(=O)(=O)c1nn2cc(-c3ccccc3)nc2s1 [Compound 18] | >4 | 3.32 | 7.4 | 10000 (≈ 22.9 mM) | 
10 | CC(=O)NCC(=O)NS(=O)(=O)c1nn2cc(-c3ccccc3)nc2s1 [Compound 20] | >4 | 1.45 | 7.4 | 10000 (≈ 26.4 mM) | 
11 | O=C(O)CCC(=O)NS(=O)(=O)c1nn2cc(-c3ccccc3)nc2s1 [Compound 22] | >4 | 2.26 | 7.4 | 8000 (≈ 21 mM) | 
12 | CSCCC(NC(=O)OC(C)(C)C)C(=O)NS(=O)(=O)c1nn2cc(-c3ccccc3)nc2s1 (stereo not drawn) [Compound 23] | >1 | 3.37 | 7.4 | 5000 (≈ 9.77 mM) | 
13 | CSCCC(N)C(=O)NS(=O)(=O)c1nn2cc(-c3ccccc3)nc2s1 (stereo not drawn) [Compound 24] |  |  |  |  | solubility in water or in 10% HPCD [6]: not soluble
14 | O=C(NS(=O)(=O)c1nn2cc(-c3ccccc3)nc2s1)C1CCCN1 (stereo not drawn) [Compound 26] |  |  |  |  | solubility in water or in 10% HPCD [6]: not soluble
15 | CC(=O)NS(=O)(=O)c1nn2cc(-c3ccc(N4CCOCC4)cc3)nc2s1 [Compound 31] | >4 | 2.48 | 7.4 | 10000 (≈ 24.5 mM) | Cisplatin-induced attenuation of SNCV ([5]; 30 mg/kg SC): protective activity
16 | COCC(=O)NS(=O)(=O)c1nn2cc(-c3ccc(N4CCOCC4)cc3)nc2s1 [Compound 32] |  | 2.14 |  |  | 
17 | CC(=O)NS(=O)(=O)c1nn2cc(-c3ccc(-c4cccc(C(F)(F)F)c4)cc3)nc2s1 [Compound 37] | >1 | 5.19 | 7.4 | 10000 (≈ 21.4 mM) | dissolution ([6]; 25 mg in 1 mL PEG 400/ethanol (50:50) + ethanolamine (20 μL)): clear solution
18 | COCC(=O)NS(=O)(=O)c1nn2cc(-c3ccc(-c4cccc(C(F)(F)F)c4)cc3)nc2s1 [Compound 39] | >1 | 4.85 | 7.4 | 10000 (≈ 20.1 mM) | Cisplatin-induced attenuation of SNCV ([5]; 30 mg/kg SC): protective activity
19 | CCCC(=O)NS(=O)(=O)c1nn2cc(-c3ccc(-c4cccc(C(F)(F)F)c4)cc3)nc2s1 [Compound 40] | >1 | 6.26 | 7.4 | 5000 (≈ 10.1 mM) | 
20 | COCCOCC(=O)NS(=O)(=O)c1nn2cc(-c3ccc(-c4cccc(C(F)(F)F)c4)cc3)nc2s1 [Compound 41] | >1 | 4.96 | 7.4 | 10000 (≈ 18.5 mM) | 
21 | COCCOCCOCC(=O)NS(=O)(=O)c1nn2cc(-c3ccc(-c4cccc(C(F)(F)F)c4)cc3)nc2s1 [Compound 42] | >4 | 4.35 | 7.4 | 10000 (≈ 17.1 mM) | 
22 | CC(C)(C)OC(=O)NS(=O)(=O)c1nn2cc(-c3ccc(-c4cccc(C(F)(F)F)c4)cc3)nc2s1 [Compound 43] | >1 | 5.76 | 7.4 | 5000 (≈ 9.53 mM) | 
23 | CC(=O)NS(=O)(=O)c1nn2cc(-c3ccc(Oc4ccc(Cl)cc4)cc3)nc2s1 [Compound 44] |  |  |  |  | conversion rate to primary sulfonamide [9]: 12%
24 | COCC(=O)NS(=O)(=O)c1nn2cc(-c3ccc(Oc4ccc(Cl)cc4)cc3)nc2s1 [Compound 45] |  |  |  |  | Cisplatin-induced attenuation of SNCV ([5]; 30 mg/kg SC): protective activity
25 | CNS(=O)(=O)c1nn2cc(-c3ccccc3)nc2s1 [Compound 140] |  |  |  |  | solubility [10]: < 500 µg/mL
